Experimental data from PMC3753236, “Glucocorticosteroids in Nano-Sterically Stabilized Liposomes Are Efficacious for Elimination of the Acute Symptoms of Experimental Cerebral Malaria” (PLoS ONE, 2013).
pIC50: −log10 of the molar value. Counter-ions that a name gives are not always drawn. Like-named read-outs stand apart in the source and are kept apart here. Each block holds one compound with its values, some of them ahead of it.

Tests used:
[1] = system: non-chloroquine resistant P. falciparum; test: P. falciparum culture, 3H-hypoxanthine incorporation; assay type: cell-based, Plasmodium falciparum; details: Plasmodium falciparum
Protocol: The parasite was grown in a human red blood cell culture (RPMI 1640, 7.5% bicarbonate, 50 µM hypoxanthine, 50 µg/ml gentamycin, and 7.5% human plasma) at 1% hematocrit and 2% parasitemia. Cultures containing predominantly ring forms were used; synchronization of the culture was performed if trophozoites represented more than 1–2% of the various developmental stages. Briefly, the culture was centrifuged and the supernatant replaced by 5% (isotonic) sorbitol. After 5 minutes at 37°C the culture was centrifuged again and the supernatant replaced by culture medium to obtain a final 1% hematocrit.
Drug testing was performed in 96-well microtiter plates incubated at 37°C in a 5% O2, 5% CO2, and 90% N2 gas mixture for 72 hours. After 48 hours, 1 µCi ^3H-hypoxanthine was added to each well and the plates were read the next day using a scintillation counter.

[2] = system: Plasmodium berghei ANKA (PbAus); test: Early treatment of ECM, PbAus-inoculated C57Bl/6 mice (with sequential artemisone)
Protocol: (§1) Plasmodium berghei ANKA (PbA; PbA MRA-311, CDC, Atlanta, GA, USA) was maintained in vivo by serial transfer of parasitized erythrocytes (PE) from infected to naïve mice. Experiments were also performed using a second strain of PbA, similarly maintained, and designated PbAus in the text (courtesy of Prof. G. Grau, University of Sydney, Australia).
(§2) Parasitemia was monitored by thin blood smears prepared from tail blood. These were stained with a 25% Giemsa solution, examined under a light microscope, and parasitemia determined as the percent of infected red blood cells per 10,000 erythrocytes. Disease severity was determined according to scoring of neurological symptoms and changes in weight and temperature, as previously described […] Parasitemias above 20% and the absence of neurological symptoms indicated severe anemic malaria.
(§3) For early ECM treatment, injections were given on days 3, 5, 7, and 9 p.i; for late treatment, treatment was given every other day, starting on day 5 p.i. for a total of at least two injections. Infected, non-treated control mice were injected with 5% dextrose or empty nSSL. Clinical signs and parasitemias were monitored and disease severity scored as described […] At each time-point, at least 3 mice from each group were chosen at random, deeply anesthetized, and brains were removed following intracardial perfusion (using saline, if organs were destined for real-time (rt)PCR analysis, or saline/formalin, if organs were destined for histopathological analysis). Organs destined for rtPCR analysis were snap-frozen in liquid nitrogen and stored at −80°C until use. Organs destined for immunohistology were immediately immersed in cryoprotectant solution (see below).

[3] = system: Plasmodium berghei ANKA (PbAus); test: Late-stage treatment of ECM followed by artemisone, PbAus-infected C57Bl/6 mice
Protocol: as §1, §2, §3

[4] = cited from earlier work
[5] = system: Plasmodium berghei ANKA (PbA); test: Early treatment of experimental cerebral malaria (ECM), ICR mice infected with PbA
Protocol: as §1, §2
as §3, with “described […] Surviving mice were treated with 2×10 mg/kg/d artemisone by intraperitoneal injection in order to achieve cure; mice were monitored for four weeks post-artemisone treatment in order to allow detection of possible late recrudescence.” for “described”

ECM = system: ECM; set-up: method as in Clemmer et al. [28]; details: after the appearance of clinical signs of neuropathology; ref Clemmer et al. [28]; cited from earlier work
[6] = 72 h culture, 3H-hypoxanthine, read-out: IC50

pIC50 [1, 6]: 9.89
Structure (SMILES): C[C@@H]1CC[C@H]2[C@@H](C)C(=O)O[C@@H]3O[C@@]4(C)CC[C@@H]1[C@]32OO4 [Artemisinin]

Structure (SMILES): C[C@H]1[C@H](N2CCS(=O)(=O)CC2)O[C@@H]2O[C@@]3(C)CC[C@H]4[C@H](C)CC[C@@H]1[C@@]24OO3 [Artemisone, reference compound]
Outcome of artemisone treatment following nSSL-BMS ([2]; 2×20 mg/kg artemisone i.p. days 11–15 p.i. after early 10 mg/kg nSSL-BMS, monitored four weeks for recrudescence): complete cure
Time to zero parasitemia after the first injection (majority of cases) ([2]; 2×20 mg/kg artemisone i.p. days 11–15 p.i. following early 10 mg/kg nSSL-BMS): ≤ 24 h
Mice that relapsed and died of ECM (of the total 17 administered artemisone) ([2]; 2×20 mg/kg/d artemisone days 11–15 p.i. after 10 mg/kg free or nSSL-BMS): One
Outcome of artemisone monotherapy ([2]; beginning on day 11 p.i.): ineffective
Outcome of artemisone after nSSL-BMS started day 5 p.i. ([3]; 2×20 mg/kg/d artemisone on days 11–15 p.i., monitored three weeks): complete cure
Outcome of artemisone after nSSL-BMS started day 7 p.i. ([3]; all remaining mice died of severe anemic malaria): ineffective
Outcome of artemisone after nSSL-BMS started day 6 p.i. ([3]; subsequent artemisone administration): cure in all mice
pIC50 [1, 6]: 9.40

pIC50 [1]: 7.40
Structure (SMILES): CCN(CC)CCCC(C)Nc1ccnc2cc(Cl)ccc12 (stereo not shown) [Chloroquine, chloroquine]

pIC50 [1, 6]: 10.00
Structure (SMILES): C[C@H]1[C@@H](O)O[C@@H]2O[C@@]3(C)CC[C@H]4[C@H](C)CC[C@@H]1[C@@]24OO3 [Dihydroartemisinin, dihydroartemisinin]

Structure (SMILES): C[C@H]1C[C@@H]2[C@H]([C@@H](O)C[C@@]3(C)[C@H]2CC[C@]3(O)C(=O)COC(=O)CCC(=O)O)[C@@]2(C)C=CC(=O)C=C12 [MPS, methylprednisolone hemisuccinate sodium salt]
Potency relative to hydrocortisone ([4]; ref [14]): ~5 times
Survival rate on day 11 ([5]; 10 mg/kg/d on days 3, 5, 7, 9 p.i.): 33%
Toxicity in ECM mice ([5]; 25 mg/kg/d, preliminary experiments): mild toxicity
pIC50 [1, 6]: 4.85

pIC50 [1, 6]: 6.42
Structure (SMILES): C=C[C@H]1C[N@@]2CC[C@H]1C[C@H]2[C@H](O)c1ccnc2ccc(OC)cc12 [Quinine, quinine]

Structure (SMILES): CO[C@H]1O[C@@H]2O[C@@]3(C)CC[C@H]4[C@H](C)CC[C@@H]([C@H]1C)[C@@]24OO3 [artemether]
Success rate of ECM rescue therapy (ECM): 43–46%

Structure (SMILES): C[C@H]1[C@H](OC(=O)CCC(=O)O)O[C@@H]2O[C@@]3(C)CC[C@H]4[C@H](C)CC[C@@H]1[C@@]24OO3 [artesunate]
Success rate of ECM rescue therapy (ECM): 43–46%

Structure (SMILES): C[C@H]1C[C@H]2[C@@H]3CCC4=CC(=O)C=C[C@]4(C)[C@@]3(F)[C@@H](O)C[C@]2(C)[C@@]1(O)C(=O)CO [β-methasone]
Potency relative to hydrocortisone ([4]; ref [15]): 25–30 fold
